Reference: patent publication US20250134952A1, “METHODS FOR IMPROVING THE EFFICACY OF HDAC INHIBITOR THERAPY AND PREDICTING THE RESPONSE TO TREATMENT WITH HDAC INHIBITOR” (INSTITUT NATIONAL DE LA SANTÉ ET DE LA RECHERCHE MÉDICALE, priority 2021, published 2025)

Legend:
Type in all cases: cell-based, human
[1] = test system: HP1α clusters in MCF7shctrl and shTau cells; assay: HP1α clusters per nucleus, confocal immunofluorescence; details: 100 nM TSA, 24 h
Procedure: (A) Representative confocal sections of MCF7shctrl and shTau cells untreated or treated with 100 nM TSA for 24 h. […] (B) Quantification of HP1α clusters per nuclei visualized as described previously and realized on three independent experiments. (C) GADD45a and (D) p21 (CDKN1a) expression in MCF7shctrl and shTau cells untreated or treated with 100 nM TSA for 24 h were analyzed by real-time PCR and normalized to RPLO. Results are expressed, relative to the basal activity set to 1, as the mean±SD of three independent assays. (E) Tau tethering prevents adjacent reporter gene activity induced by TSA. GAL4UAS responsive luciferase reporter Hela stable cell line was transfected with GAL4DBD (GAL4) or GAL4DBD-Tau4R and then, 24 h later, treated with TSA (600 nM) for 24 h. The luciferase activity was determined as described in the Materials and Methods. (F) Ectopic Tau4R expression prevents adjacent reporter gene activity induced by TSA. […] The luciferase activity was determined as described in the Materials and Methods. […]
MCF7shctrl, MCF7shTau or transfected Hela cells with Tau4R and GFP-HP1α were fixed in 4% paraformaldehyde for 30 min at room temperature. […] Slides were then analyzed with a Zeiss LSM710 confocal laser scanning microscope (60× magnification). Images were collected in the Z direction at 0.80 μm intervals and quantifications were realized using the Image J plug-in.

[2] = test system: GAPDH promoter in MCF7shctrl cells; assay: ChIP-qPCR of H3 acetylation and Tau occupancy on the GAPDH promoter; details: 100 nM TSA, GAPDH transcription start site
Excerpt: (A) Chromatin immunoprecipitations-qPCR analysis of H3 acetylation and Tau occupancy on the GAPDH promoter in MCF7shctrl cells in the indicated conditions. MCF7shctrl cells were subjected to cross-linking by 1% formaldehyde. Chromatin fragments were then immunoprecipitated using antibodies (Ab) against acetylated H3 (ac-H3) or Tau and analyzed by quantitative PCR for the presence of the GAPDH promoter. (B) Functional organization of the p21 promoter. (C) ChIP-qPCR analysis of H3 acetylation in MCF7shctrl or shTau cells or (D) Tau occupancy in MCF7shctrl cells on the p21 promoter. […] Chromatin fragments were then immunoprecipitated using antibodies (Ab) against acetylated H3 or Tau and analyzed by quantitative PCR for the presence of the GAL4 UAS promoter. Quantification of enrichment is represented as fold-enrichment relative to IgG. […]
To test this hypothesis, we next performed chromatin immunoprecipitations assays. […] Quantitative PCR analysis of input or immunoprecipitated DNA using acetylated H3 and Tau antibodies was carried out to detect different promoter regions. […] No change in the level of acetylated H3, nor Tau binding, were detected after TSA treatment (FIG. 3A). […] In addition, Tau was detected at the level of these regions in MCF7shctrl cells (≈4-fold enrichment) in absence or presence of TSA treatment (FIG. 3D).

[3] = test system: p21 promoter in MCF7shctrl or shTau cells; assay: ChIP-qPCR of H3 acetylation and Tau occupancy on the p21 promoter; details: for acetylated H3 enrichment compared to IgG: p21 promoter (transcription start site region)
Excerpt: (A) Chromatin immunoprecipitations-qPCR analysis of H3 acetylation and Tau occupancy on the GAPDH promoter in MCF7shctrl cells in the indicated conditions. MCF7shctrl cells were subjected to cross-linking by 1% formaldehyde. Chromatin fragments were then immunoprecipitated using antibodies (Ab) against acetylated H3 (ac-H3) or Tau and analyzed by quantitative PCR for the presence of the GAPDH promoter. (B) Functional organization of the p21 promoter. (C) ChIP-qPCR analysis of H3 acetylation in MCF7shctrl or shTau cells or (D) Tau occupancy in MCF7shctrl cells on the p21 promoter. (E) ChIP-qPCR analysis of H3 acetylation or Tau occupancy on the stably transfected GAL4UAS responsive luciferase reporter transfected, or not, with Tau4R, then 24 h later treated with 100 nM TSA for 24 h. Cells were then subjected to cross-linking by 1% formaldehyde. Chromatin fragments were then immunoprecipitated using antibodies (Ab) against acetylated H3 or Tau and analyzed by quantitative PCR for the presence of the GAL4 UAS promoter. Quantification of enrichment is represented as fold-enrichment relative to IgG. Data are mean±SD **P<0.01***P<0.001
The ChIP protocol used was previously described (Lefebvre et al., 2006). Primers sequences for the pGL4.31[luc2P/GAL4 UAS/Hygro] promoter were: forward, 5′-[…]-3′ (SEQ ID N^o1), and reverse, 5′-[…]-3′ (SEQ ID N^o2); for p21 promoter: distal forward 5′-[…]-3′ (SEQ ID N^o3) and reverse 5′-[…]-3′ (SEQ ID N^o4); proximal forward 5′-[…]-3′ (SEQ ID N^o5) and reverse 5′-[…]-3′ (SEQ ID N^o6); p21 (transcription start site) TSS forward: 5′-[…]-3′ (SEQ ID N^o7) and reverse 5′-GCTCTCTCACCTCCTCTG3′ (SEQ ID N^o8); for GAPDH TSS: forward 5′-[…]-3′ (SEQ ID N^o9) and reverse 5′-[…]-3′ (SEQ ID N^o10). Antibodies used in the studies included the following: anti-acetylated H3 (Active motif, 39139) and anti-Tau1 (Millipore, MAB3420). All ChIP analyses were performed in at least two independent experiments.
To test this hypothesis, we next performed chromatin immunoprecipitations assays. Antibodies specific for acetylated H3 (ac-H3) and Tau were used to immunoprecipitate formaldehyde-cross-linked sonicated chromatin from short hairpin Tau knockdowns and control cells treated, or not, with 100 nM TSA. Quantitative PCR analysis of input or immunoprecipitated DNA using acetylated H3 and Tau antibodies was carried out to detect different promoter regions. As a control of non-TSA-inducible gene, we first used primers encompassing the transcription start site of the GAPDH promoter. No change in the level of acetylated H3, nor Tau binding, were detected after TSA treatment (FIG. 3A). […] In addition, Tau was detected at the level of these regions in MCF7shctrl cells (≈4-fold enrichment) in absence or presence of TSA treatment (FIG. 3D).

For `CC(/C=C/C(=O)NO)=C\[C@@H](C)C(=O)c1ccc(N(C)C)cc1` [TSA, 2,4-Heptadienamide, 7-[4-(dimethylamino)phenyl]-N-hydroxy-4,6-dimethyl-7-oxo-, (2E,4E,6R)-], the “HP1α clusters per nucleus” value ([1]; Tau knocked down MCF7 cells) was 3 clusters, the “HP1α clusters per nucleus” value ([1]; sh-control MCF7 cells) was “five” and the “level of acetylated H3 and Tau binding after TSA treatment” value [2] was “No change”. The “acetylated H3 enrichment compared to non-treated cells” value ([3]; 100 nM TSA, MCF7shTau cells, p21 proximal and distal regions) was “≈ 10 fold”, the “acetylated H3 enrichment compared to IgG” value ([3]; 100 nM TSA, shctrl cells) was 70 fold and the “Tau enrichment (occupancy)” value ([3]; MCF7shctrl cells, p21 proximal and distal regions, in absence or presence of TSA treatment) was “≈ 4 fold”. The “acetylated H3 enrichment compared to IgG” value ([3]; shTau cells, irrespective of TSA treatment) was “≈ 160 fold”.
